Measurements from patent publication EP0738149B1 (priority 1994, dated 1995).

What was measured:
hypoxic rat = test: α-MpT-induced hypokinesia in hypoxic rat (locomotor activity), Experiments 1A-1C; assay type: in vivo; details: Mean ± SEM
Method: Experiment 1A. Wistar male rats, 15-19 month-old, were exposed to a single hypoxic episode which is assumed to decrease the level of dopamine in the brain. […] The drugs were administered by gavage, using a special syringe equipped with rounded tip that could be directed into the stomach. The dose was contained in 0.3-0.5 mL of distilled water. The rats were pretreated for 70-80 days with daily doses of the test drugs and received intra-peritoneal (i.p.) α-MpT (α-methyl-p-tyrosine) at a dose of 100mg/kg in 0.3-0.5 mL saline. Controls received saline. α-MpT is assumed to inhibit the formation of L-Dopa from tyrosine and, consequently the formation of dopamine itself. Lack of central dopamine is expressed as hypokinesia. Following the injection of α-MpT, motor activity was recorded for the duration of 10 hours. Locomotion scores were taken in seven fully-computerized cages (26x25cm) having a grid of infra-red beams at 4 cm-intervals. Crossing of a beam initiated an electric signal which was fed into a computer. The number of crossings over a given period provided a measure of locomotion. The records gave two data categories: (a) "small movements" originating in stationary activities such as grooming and scratching and (b) "big movements" originating in ambulation and recorded as the simultaneous crossing of more than two beams."Total movements" include both categories. Counts of motor activity in the presence of α-MpT were related as percent with respect to counts in its absence in the corresponding control group (unlesioned or hypoxia-lesioned). Motor activity counts of drug-treated rats were related to the hypoxia saline-treated as 100%. All behavioral tests were performed 90-120 min. after administration of the last dose of the test compound.
Experiment 1B. […] The drugs were given i.p. • (3) Duration of the treatment: 21 days. • (4) Dose of α-MpT: 70 mg/Kg.

MAO-A = target: T1, MAO-A (Rattus norvegicus, UniProt P21396); details: ex vivo brain
T1 sequence (P21396 1-526): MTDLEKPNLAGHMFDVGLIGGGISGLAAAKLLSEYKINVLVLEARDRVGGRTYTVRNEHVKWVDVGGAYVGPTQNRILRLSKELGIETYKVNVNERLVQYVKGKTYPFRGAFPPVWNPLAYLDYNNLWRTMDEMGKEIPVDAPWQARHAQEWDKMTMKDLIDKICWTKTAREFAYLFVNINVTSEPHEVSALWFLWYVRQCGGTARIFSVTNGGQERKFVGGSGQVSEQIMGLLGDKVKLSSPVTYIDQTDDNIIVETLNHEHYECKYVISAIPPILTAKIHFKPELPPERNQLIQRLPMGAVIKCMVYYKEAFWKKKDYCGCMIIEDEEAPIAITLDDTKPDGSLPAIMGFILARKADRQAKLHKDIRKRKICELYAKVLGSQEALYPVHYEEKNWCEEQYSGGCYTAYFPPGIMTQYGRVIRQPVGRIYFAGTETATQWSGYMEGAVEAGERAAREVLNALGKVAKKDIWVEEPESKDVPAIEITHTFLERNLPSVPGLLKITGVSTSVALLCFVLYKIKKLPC
Source text: The brains of some rats from each experimental group in Exp. 1 (chronic treatment of 80 days) and Exp. 2 (acute treatment of 14 days) were ex vivo analyzed for MAO-A and MAO-B activity.

[1] = test system: mechanically dissociated neonatal rat cerebellum; test: Enhancement of cell survival in cultures of neonatal rat cerebellum (no NMDA); assay type: cell-based; details: 24 hours after addition, percentage of the number of control cells on the fourth day
Method: The cerebellum was aseptically dissociated from 6 or 7-day old rat pups and placed in a 15ml sterile plastic conical tube containing 3ml of Dulbecco's modified Eagle's medium (DMEM) with a high glucose concentration ([…]) and 2mM (v/v) L-glutamine and an antibiotic antimitotic mixture. The cerebella were then dissociated after 20-25 passages through a sterile 13 gauge, 10cm long stainless steel needle attached to a 5ml syringe with an inserted 45 micrometer pore nylon sieve. The dissociated cells were centrifuged at 200g for 5 minutes. […] Cell viability was determined by the tryptan blue exclusion test.
Cells were plated at a density of 200/mm^2 on poly-L-lysine coated surfaces. Poly-L-lysine coated glass coverslips were prepared at least one hour in advance of plating by immersing sterile coverslips in sterile distilled water solution containing 15 microgram/ml poly-L-lysine, and washing in sterile water just prior to use. […] After three days in culture, the media was replaced with media containing the desired test compound. Each test compound was tested in duplicate. Toxic-dose response was determined for each compound.
Cell cultures were grown as described above but in the absence of NMDA and after 3 days a dose of test compound was added. Cell survival was monitored as described above.

mice = test: Maximal electroshock (MES) model in mice, i.p.;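 further: Electroshock-induced convulsion model serving to demonstrate antiepileptic efficacy against generalized and partial seizures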; assay type: in vivo; details: Mus musculus, ip, Table 15
[2] = Exp 1A, 0.5mg/kg/Day gavage 70-80 days, α-MpT 100mg/kg i.p., Hour 1
[3] = Exp 1A, 0.5mg/kg/Day gavage 70-80 days, α-MpT 100mg/kg i.p., Hour 2
[4] = Exp 1A, 0.5mg/kg/Day gavage 70-80 days, α-MpT 100mg/kg i.p., Hour 3
[5] = Exp 1A, 0.5mg/kg/Day gavage 70-80 days, α-MpT 100mg/kg i.p., Hour 4
[6] = Exp 1A, 0.5mg/kg/Day gavage 70-80 days, α-MpT 100mg/kg i.p., Hour 5
[7] = Exp 1A, 0.5mg/kg/Day gavage 70-80 days, α-MpT 100mg/kg i.p., Hour 7
[8] = Exp 1A, 0.5mg/kg/Day gavage 70-80 days, α-MpT 100mg/kg i.p., Hour 8
[9] = Exp 1A, 0.5mg/kg/Day gavage 70-80 days, α-MpT 100mg/kg i.p., Hour 9
[10] = Exp 1A, 0.5mg/kg/Day gavage 70-80 days, α-MpT 100mg/kg i.p., Hour 10
[11] = Exp 1B, 0.3 mg/Kg daily i.p. 21 days, α-MpT 70 mg/Kg, Hour 1
[12] = Exp 1B, 0.3 mg/Kg daily i.p. 21 days, α-MpT 70 mg/Kg, Hour 2
[13] = Exp 1B, 0.3 mg/Kg daily i.p. 21 days, α-MpT 70 mg/Kg, Hour 3
[14] = Exp 1B, 0.3 mg/Kg daily i.p. 21 days, α-MpT 70 mg/Kg, Hour 4
[15] = Exp 1B, 0.3 mg/Kg daily i.p. 21 days, α-MpT 70 mg/Kg, Hour 5
[16] = Exp 1B, 0.3 mg/Kg daily i.p. 21 days, α-MpT 70 mg/Kg, Hour 6
[17] = Exp 1B, 0.3 mg/Kg daily i.p. 21 days, α-MpT 70 mg/Kg, Hour 7
[18] = Exp 1B, 0.3 mg/Kg daily i.p. 21 days, α-MpT 70 mg/Kg, Hour 8
[19] = Exp 1B, 0.3 mg/Kg daily i.p. 21 days, α-MpT 70 mg/Kg, Hour 9
[20] = Exp 1B, 0.3 mg/Kg daily i.p. 21 days, α-MpT 70 mg/Kg, Hour 10

Compound: C#CCN(C)[C@H](C)Cc1ccccc1 [deprenyl]
- Locomotor activity after α-MpT treatment, recorded as big movements (hypoxic rat; [2]): 61 ± 15%
- Locomotor activity after α-MpT treatment, recorded as total movements (hypoxic rat; [2]): 88 ± 23%
- Locomotor activity after α-MpT treatment, recorded as big movements (hypoxic rat; [3]): 103 ± 22%
- Locomotor activity after α-MpT treatment, recorded as total movements (hypoxic rat; [3]): 131 ± 30%
- Locomotor activity after α-MpT treatment, recorded as big movements (hypoxic rat; [4]): 184 ± 39%
- Locomotor activity after α-MpT treatment, recorded as total movements (hypoxic rat; [4]): 141 ± 26%
- Locomotor activity after α-MpT treatment, recorded as big movements (hypoxic rat; [5]): 85 ± 34%
- Locomotor activity after α-MpT treatment, recorded as total movements (hypoxic rat; [5]): 191 ± 45%
- Locomotor activity after α-MpT treatment, recorded as big movements (hypoxic rat; [6]): 171 ± 61%
- Locomotor activity after α-MpT treatment, recorded as total movements (hypoxic rat; [6]): 229 ± 40%
- Locomotor activity after α-MpT treatment, recorded as big movements (hypoxic rat; Exp 1A, 0.5mg/kg/Day gavage 70-80 days, α-MpT 100mg/kg i.p., Hour 6): 65 ± 17%
- Locomotor activity after α-MpT treatment, recorded as big movements (hypoxic rat; [7]): 96 ± 29%
- Locomotor activity after α-MpT treatment, recorded as total movements (hypoxic rat; [7]): 204 ± 7%
- Locomotor activity after α-MpT treatment, recorded as big movements (hypoxic rat; [8]): 91 ± 40%
- Locomotor activity after α-MpT treatment, recorded as total movements (hypoxic rat; [8]): 131 ± 23%
- Locomotor activity after α-MpT treatment, recorded as big movements (hypoxic rat; [9]): 84 ± 23%
- Locomotor activity after α-MpT treatment, recorded as total movements (hypoxic rat; [9]): 137 ± 21%
- Locomotor activity after α-MpT treatment, recorded as big movements (hypoxic rat; [10]): 29 ± 10%
- Locomotor activity after α-MpT treatment, recorded as total movements (hypoxic rat; [10]): 116 ± 22%
- Locomotor activity after α-MpT treatment, recorded as big movements (hypoxic rat; [11]): 70 ± 10%
- Locomotor activity after α-MpT treatment, recorded as total movements (hypoxic rat; [11]): 68 ± 9%
- Locomotor activity after α-MpT treatment, recorded as big movements (hypoxic rat; [12]): 91 ± 19%
- Locomotor activity after α-MpT treatment, recorded as total movements (hypoxic rat; [12]): 95 ± 11%
- Locomotor activity after α-MpT treatment, recorded as big movements (hypoxic rat; [13]): 85 ± 19%
- Locomotor activity after α-MpT treatment, recorded as total movements (hypoxic rat; [13]): 126 ± 22%
- Locomotor activity after α-MpT treatment, recorded as big movements (hypoxic rat; [14]): 88 ± 23%
- Locomotor activity after α-MpT treatment, recorded as total movements (hypoxic rat; [14]): 118 ± 20%
- Locomotor activity after α-MpT treatment, recorded as big movements (hypoxic rat; [15]): 87 ± 11%
- Locomotor activity after α-MpT treatment, recorded as total movements (hypoxic rat; [15]): 83 ± 24%
- Locomotor activity after α-MpT treatment, recorded as big movements (hypoxic rat; [16]): 67 ± 8%
- Locomotor activity after α-MpT treatment, recorded as total movements (hypoxic rat; [16]): 78 ± 9%
- Locomotor activity after α-MpT treatment, recorded as big movements (hypoxic rat; [17]): 62 ± 9%
- Locomotor activity after α-MpT treatment, recorded as total movements (hypoxic rat; [17]): 56 ± 7%
- Locomotor activity after α-MpT treatment, recorded as big movements (hypoxic rat; [18]): 70 ± 9%
- Locomotor activity after α-MpT treatment, recorded as total movements (hypoxic rat; [18]): 85 ± 13%
- Locomotor activity after α-MpT treatment, recorded as big movements (hypoxic rat; [19]): 132 ± 24%
- Locomotor activity after α-MpT treatment, recorded as total movements (hypoxic rat; [19]): 111 ± 12%
- Locomotor activity after α-MpT treatment, recorded as big movements (hypoxic rat; [20]): 54 ± 13%
- Locomotor activity after α-MpT treatment, recorded as total movements (hypoxic rat; [20]): 61 ± 12%

Compound: N[C@@H]1CCc2ccccc21 [R-AI, (R)-1-aminoindan]
- % inhibition of MAO A acute treatment (MAO-A; acute treatment of 14 days): 13%
- % inhibition of MAO A chronic treatment (MAO-A; chronic treatment of 80 days): 6%

Compound: CC(=O)N[C@@H]1CCc2ccccc21 [Example 18, (R)-N-Acetyl-1-aminoindan]
- % ENHANCED SURVIVAL ([1]; 0.01 µM): 145%
- % ENHANCED SURVIVAL ([1]; 0.10 µM): 130%
- % ENHANCED SURVIVAL ([1]; 1.00 µM): 126%
- ED50 (mice): 31 mg/kg
